Source: patent US20240368135A1 (VERTEX PHARMACEUTICALS INCORPORATED, priority 2021, published 2024)

What follows are molecules tested against human NaV 1.8 (Homo sapiens, UniProt Q9Y5Y9) (assay: E-VIPR assay detecting and measuring NaV inhibition properties). Conditions: HEK cells expressing truncated human NaV 1.8; in the presence of human serum (compound numbers followed by *); read-out: IC50 in the E-VIPR Assay, performed in the presence of human serum.
Format: cell-based
Description: Sodium ion channels are voltage-dependent proteins that can be activated by inducing membrane voltage changes by applying electric fields. The electrical stimulation instrument and methods of use, referred to as E-VIPR, are described in International Publication No. WO 2002/008748 A3 and C.-J. Huang et al. Characterization of voltage-gated sodium channel blockers by electrical stimulation and fluorescence detection of membrane potential, 24 Nature Biotech. 439-46 (2006), both of which are incorporated by reference in their entirety. The instrument comprises a microtiter plate handler, an optical system for exciting the coumarin dye while simultaneously recording the coumarin and oxonol emissions, a waveform generator, a current- or voltage-controlled amplifier, and parallel electrode pairs that are inserted into assay plate wells. Under integrated computer control, this instrument passes user-programmed electrical stimulus protocols to cells within the wells of the microtiter plate.
16-20 hours prior to running the assay on E-VIPR, HEK cells expressing a truncated form of human NaV 1.8 with full channel activity were seeded into microtiter 384-well plates, pre-coated with matrigel, at a density of 25,000 cells per well. 2.5-5% KIR2.1 Bacmam virus was added to the final cell suspension before seeding into cell plates. HEK cells were grown in Dulbecco's Modified Eagle's Medium (DMEM) supplemented with 10% FBS (Fetal Bovine Serum, qualified; Sigma #F4135), 1% NEAA (Non-Essential Amino Acids, Gibco #11140), 1% HEPES (Gibco #15630), 1% Pen-Strep (Penicillin-Streptomycin; Gibco #15140) and 5 μg/ml Blasticidin (Gibco #R210-01). Cells were expanded in vented cap cell culture flasks, with 90-95% humidity and 5% CO2.
Human Serum (HS, Millipore #S1P1-01KL, or Sigma SLBR5469V and SLBR5470V as a 50%/50% mixture, for 25% assay final concentration) • Bath 1 Buffer: • Sodium Chloride 160 mM (9.35 g/L), Potassium Chloride, 4.5 mM (0.335 g/L), Glucose 10 mM (1.8 g/L), Magnesium Chloride (Anhydrous) 1 mM (0.095 g/L), Calcium Chloride 2 mM (0.222 g/L), HEPES 10 mM (2.38 g/L) in water. • Na/TMA C1 Bath 1 Buffer: • Sodium Chloride 96 mM (5.61 g/L), Potassium Chloride 4.5 mM (0.335 g/L), Tetramethylammonium (TMA)-Cl 64 mM (7.01 g/L), Glucose 10 mM (1.8 g/L), Magnesium Chloride (Anhydrous) 1 mM (0.095 g/L), Calcium Chloride 2 mM (0.222 g/L) HEPES 10 mM (2.38 g/L) in water. • Hexyl Dye Solution (2× concentration): • Bath 1 Buffer containing 0.5% P-cyclodextrin (made fresh prior to each use, Sigma #C4767), 8 μM CC2-DMPE and 2 μM DiSBAC6(3). The solution was made by adding 10% Pluronic F127 stock equal to combined volumes of CC2-DMPE and DiSBAC6(3). The order of preparation was first mix Pluronic and CC2-DMPE, then add DiSBAC6(3), then while vortexing add Bath 1/p-Cyclodextrin.
Compound Loading Buffer (2× concentration): Na/TMA C1 Bath1 Buffer containing HS (omitted in experiments run in the absence of human serum (HS)) 50%, VABSC-1 1 mM, BSA 0.2 mg/ml (in Bath-1), KCl 9 mM, DMSO 0.625%.
1) To reach the final concentration in each well, 375 nL of each compound was pre-spotted (in neat DMSO) into polypropylene compound plates at 240× desired final concentration from an intermediate stock concentration of 0.075 mM, in an 11 point dose response, 3-fold dilution, resulting in a top dose of 300 nM final concentration in the cell plate. Vehicle control (neat DMSO), and positive control (an established NaV1.8 inhibitor, 25 μM final in assay in DMSO) were added manually to the outermost columns of each plate respectively. The compound plate was backfilled with 45 μL per well of Compound Loading Buffer resulting in a 240 fold dilution of compound following a 1:1 transfer of compound into the cell plate (see Step 6). Final DMSO concentration for all wells in the assay was 0.625% (0.75% DMSO was supplemented to the Compound Loading Buffer for a final DMSO concentration of 0.625%). […]

human NaV 1.8, sequence (Q9Y5Y9 126-399 limits assumed): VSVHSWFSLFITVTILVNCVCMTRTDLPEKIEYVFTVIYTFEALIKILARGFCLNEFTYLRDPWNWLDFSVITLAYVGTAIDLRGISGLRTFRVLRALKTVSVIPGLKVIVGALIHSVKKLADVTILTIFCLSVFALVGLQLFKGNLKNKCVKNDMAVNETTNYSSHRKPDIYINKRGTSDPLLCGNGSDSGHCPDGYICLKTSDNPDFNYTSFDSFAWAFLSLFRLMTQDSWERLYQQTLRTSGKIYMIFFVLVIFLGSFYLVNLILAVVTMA
human NaV 1.8, sequence (Q9Y5Y9 660-890 limits assumed): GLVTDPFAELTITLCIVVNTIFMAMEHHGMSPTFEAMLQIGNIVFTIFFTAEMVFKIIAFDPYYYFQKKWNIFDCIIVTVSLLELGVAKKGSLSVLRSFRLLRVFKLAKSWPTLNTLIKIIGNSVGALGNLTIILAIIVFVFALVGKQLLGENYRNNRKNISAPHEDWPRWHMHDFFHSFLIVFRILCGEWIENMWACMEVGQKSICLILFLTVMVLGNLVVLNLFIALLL
human NaV 1.8, sequence (Q9Y5Y9 1148-1722 limits assumed): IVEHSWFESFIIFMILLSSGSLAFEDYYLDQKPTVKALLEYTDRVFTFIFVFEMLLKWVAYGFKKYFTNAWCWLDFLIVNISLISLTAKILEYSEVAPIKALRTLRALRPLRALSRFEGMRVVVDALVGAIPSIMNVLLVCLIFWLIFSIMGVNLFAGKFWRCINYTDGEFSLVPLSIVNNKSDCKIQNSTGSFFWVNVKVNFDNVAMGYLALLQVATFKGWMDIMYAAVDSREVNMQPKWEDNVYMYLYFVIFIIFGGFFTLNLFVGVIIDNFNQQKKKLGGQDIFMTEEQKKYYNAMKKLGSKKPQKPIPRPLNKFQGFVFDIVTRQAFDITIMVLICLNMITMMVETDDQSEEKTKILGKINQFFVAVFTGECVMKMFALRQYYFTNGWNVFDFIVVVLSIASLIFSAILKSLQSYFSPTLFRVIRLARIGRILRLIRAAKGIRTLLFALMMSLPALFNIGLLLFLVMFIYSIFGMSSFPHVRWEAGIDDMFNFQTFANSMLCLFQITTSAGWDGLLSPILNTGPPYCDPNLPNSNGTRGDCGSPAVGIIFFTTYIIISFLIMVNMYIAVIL

Q: How did the IC50 turn out when `CCc1c(F)ccc([C@@H]2C[C@](C)(C(F)(F)F)O[C@H]2C(=O)Nc2cn(S(C)(=O)=O)nc2C)c1OC` (stereo in doubt) [Compound 717, rel-(2R,3S,5R)-3-(3-ethyl-4-fluoro-2-methoxyphenyl)-5-methyl-N-(3-methyl-1-(methylsulfonyl)-1H-pyrazol-4-yl)-5-(trifluoromethyl)tetrahydrofuran-2-carboxamide] was run?
A: 100 to 1000 nM

Q: With `C[C@@H]1[C@H](c2ccc(F)c(F)c2OC(F)F)[C@@H](C(=O)Nc2cncc(C#N)c2)O[C@]1(C)C(F)(F)F` (single isomer, unassigned) [Compound 69] as the molecule, how does the IC50 read?
A: ≥ 1000 nM

Same assay, conditions: HEK cells expressing truncated human NaV 1.8; no human serum; read-out: IC50 in the E-VIPR Assay

Q: How did the IC50 turn out when `COc1c([C@H]2[C@H](C(=O)NCC#N)O[C@@](C)(C(F)(F)F)[C@H]2C)ccc(F)c1F` [Compound 277, (2R,3S,4S,5R)-N-(cyanomethyl)-3-(3,4-difluoro-2-methoxyphenyl)-4,5-dimethyl-5-(trifluoromethyl)tetrahydrofuran-2-carboxamide] was run?
A: ≥ 1000 nM

Q: For `COc1c([C@H]2[C@H](C(=O)Nc3ccnc(N4C(=O)CN5CCC4CC5)c3)O[C@@](C)(C(F)(F)F)[C@H]2C)ccc(F)c1F` [Compound 468, (2R,3S,4S,5R)-3-(3,4-difluoro-2-methoxyphenyl)-4,5-dimethyl-N-(2-(3-oxo-1,4-diazabicyclo[3.2.2]nonan-4-yl)pyridin-4-yl)-5-(trifluoromethyl)tetrahydrofuran-2-carboxamide], which IC50 is on record?
A: 10 to 100 nM

Q: How did the IC50 turn out when `COc1c([C@H]2[C@H](C(=O)Nc3ccnc(N4C(=O)CN(C)C[C@@H]4C)c3)O[C@@](C)(C(F)(F)F)[C@H]2C)ccc(F)c1F` [Compound 469, (2R,3S,4S,5R)-3-(3,4-difluoro-2-methoxyphenyl)-N-(2-((S)-2,4-dimethyl-6-oxopiperazin-1-yl)pyridin-4-yl)-4,5-dimethyl-5-(trifluoromethyl)tetrahydrofuran-2-carboxamide] was run?
A: < 10 nM

Q: Which IC50 does the source give for `COc1c([C@H]2[C@H](C(=O)Nc3ccc(-c4nncn4C)nc3)O[C@@](C)(C(F)(F)F)[C@H]2C)ccc(F)c1F` [Compound 397, (2R,3S,4S,5R)-3-(3,4-difluoro-2-methoxyphenyl)-4,5-dimethyl-N-(6-(4-methyl-4H-1,2,4-triazol-3-yl)pyridin-3-yl)-5-(trifluoromethyl)-tetrahydrofuran-2-carboxamide] here?
A: 100 to 1000 nM

Q: Which IC50 does the source give for `COc1c([C@H]2[C@H](C(=O)NCc3ccc4ncccc4c3)O[C@@](C)(C(F)(F)F)[C@H]2C)ccc(F)c1F` [Compound 294, (2R,3S,4S,5R)-3-(3,4-difluoro-2-methoxyphenyl)-4,5-dimethyl-N-(quinolin-6-ylmethyl)-5-(trifluoromethyl)tetrahydrofuran-2-carboxamide] here?
A: ≥ 1000 nM

Q: For `CNc1cc(NC(=O)[C@@H]2O[C@@](C)(C(F)(F)F)[C@@H](C)[C@H]2c2ccc(F)c(F)c2OC)ccn1` [Compound 387, (2R,3S,4S,5R)-3-(3,4-difluoro-2-methoxyphenyl)-4,5-dimethyl-N-(2-(methylamino)pyridin-4-yl)-5-(trifluoromethyl)tetrahydrofuran-2-carboxamide], which IC50 is on record?
A: 10 to 100 nM

Q: How did the IC50 turn out when `COc1c([C@@H]2[C@@H](C(=O)Nc3ccnc(S(=O)(=O)N(C)C)c3)O[C@](C)(C(F)(F)F)[C@@H]2C)ccc(F)c1F` (stereo in doubt) [Compound 448, rel-(2S,3R,4R,5S)-3-(3,4-difluoro-2-methoxyphenyl)-N-(2-(N,N-dimethylsulfamoyl)pyridin-4-yl)-4,5-dimethyl-5-(trifluoromethyl)tetrahydrofuran-2-carboxamide] was run?
A: ≥ 1000 nM

Q: With `Cc1nocc1NC(=O)[C@@H]1O[C@@](C)(C(F)(F)F)[C@@H](C)[C@H]1c1ccc(F)c(F)c1OCCN1CC(F)C1` [Compound 625, (2R,3S,4S,5R)-3-(3,4-difluoro-2-(2-(3-fluoroazetidin-1-yl)ethoxy)phenyl)-4,5-dimethyl-N-(3-methylisoxazol-4-yl)-5-(trifluoromethyl)tetrahydrofuran-2-carboxamide] as the molecule, how does the IC50 read?
A: < 10 nM

Q: Which IC50 does the source give for `C[C@@H]1[C@H](c2ccc(F)c(F)c2OC(F)F)[C@@H](C(=O)Nc2ccnc(CO)c2)O[C@]1(C)C(F)(F)F` (single isomer, unassigned) [Compound 91] here?
A: ≥ 1000 nM

Q: `CCOc1c([C@@H]2[C@@H](C(=O)Nc3ccnc(S(C)(=N)=O)c3)O[C@](C)(C(F)(F)F)[C@@H]2C)ccc(F)c1C` (single isomer, unassigned) [Compound 126] was tested. Which IC50 did it give?
A: 100 to 1000 nM

Q: `COc1c(C2C(C(=O)Nc3cccnc3)OC(C)(C(F)(F)F)C2C)ccc(F)c1F` (single isomer, unassigned) [Compound 30, 3-(3,4-difluoro-2-methoxy-phenyl)-4,5-dimethyl-N-(3-pyridyl)-5-(trifluoromethyl)tetrahydrofuran-2-carboxamide] was tested. Which IC50 did it give?
A: < 10 nM

Q: Which IC50 does the source give for `CN=S(C)(=O)c1cc(NC(=O)C2OC(C)(C(F)(F)F)C(C)C2c2ccc(F)c(F)c2OC)ccn1` (single isomer, unassigned) [Compound 529, 3-(3,4-difluoro-2-methoxy-phenyl)-N-[2-(N,S-dimethylsulfonimidoyl)-4-pyridyl]-4,5-dimethyl-5-(trifluoromethyl)tetrahydrofuran-2-carboxamide] here?
A: 100 to 1000 nM

Q: With `CNC(COC)c1ccc(NC(=O)[C@@H]2O[C@@](C)(C(F)(F)F)[C@@H](C)[C@H]2c2ccc(F)c(F)c2OC)cn1` (single isomer, unassigned) [Compound 414, rel-(2R*,3S*,4S*,5R*)-3-(3,4-difluoro-2-methoxyphenyl)-N-(6-(2-methoxy-1-(methylamino)ethyl)-pyridin-3-yl)-4,5-dimethyl-5-(trifluoromethyl)-tetrahydrofuran-2-carboxamide] as the molecule, how does the IC50 read?
A: 100 to 1000 nM

Q: Which IC50 does the source give for `COc1c([C@H]2[C@H](C(=O)NC3CS(=O)(=O)C3)O[C@@](C)(C(F)(F)F)[C@H]2C)ccc(F)c1F` [Compound 309, (2R,3S,4S,5R)-3-(3,4-difluoro-2-methoxyphenyl)-N-(1,1-dioxidothietan-3-yl)-4,5-dimethyl-5-(trifluoromethyl)tetrahydrofuran-2-carboxamide] here?
A: ≥ 1000 nM

Q: `COc1c([C@@H]2[C@@H](C(=O)Nc3ccc(C(F)F)nc3)O[C@](C)(C(F)(F)F)[C@@H]2C)ccc(F)c1C(F)F` (single isomer, unassigned) [Compound 164] was tested. Which IC50 did it give?
A: ≥ 1000 nM

Q: Which IC50 does the source give for `COc1c(C2C(C(=O)Nc3ccnc(S(C)(=N)=O)c3)OC(C)(C(F)(F)F)C2C)ccc(F)c1F` (single isomer, unassigned) [Compound 54, 3-(3,4-difluoro-2-methoxy-phenyl)-4,5-dimethyl-N-[2-(methylsulfonimidoyl)-4-pyridyl]-5-(trifluoromethyl)tetrahydrofuran-2-carboxamide] here?
A: < 10 nM

Q: How did the IC50 turn out when `COCCNC(COC)c1ccc(NC(=O)[C@@H]2O[C@@](C)(C(F)(F)F)[C@@H](C)[C@H]2c2ccc(F)c(F)c2OC)cn1` (single isomer, unassigned) [Compound 417, rel-(2R*,3S*,4S*,5R*)-3-(3,4-difluoro-2-methoxyphenyl)-N-(6-(2-methoxy-1-((2-methoxyethyl)amino)-ethyl)pyridin-3-yl)-4,5-dimethyl-5-(trifluoromethyl)-tetrahydrofuran-2-carboxamide] was run?
A: 10 to 100 nM
